Experimental data reported in the supplement of paper PMC10307832.

Key:
Assay in all cases: relative viability (nuclei count vs DMSO), 5 days (fraction); higher = more cells survive
[1] = compound: CC1=CC(=CC=C1)NC2=NC(=CS2)C3=CC=NC=C3 + COc1cccc2cc(-c3nc([C@H]4CC[C@H](C(=O)O)CC4)n4ncnc(N)c34)[nH]c12 [OSI-027] (partner 0.5 µM)
Method in brief: (§1)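 One day after seeding in 1536-well plates, lung cancer cell lines were dosed by pin tool. Dosing was either single-drug or a fixed anchor-drug dose plus five library-drug doses (not always all listed) in √10 steps. After 5 days, nuclei were stained in one fix-and-stain step and counted on 4× images, and relative viability is the nuclei count of treated wells over that of vehicle wells, given as the median of duplicate plates.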

Masitinib + Dasatinib = compound: Cc1ccc(NC(=O)c2ccc(CN3CCN(C)CC3)cc2)cc1Nc1nc(-c2cccnc2)cs1 [Masitinib] + Cc1nc(Nc2ncc(C(=O)Nc3c(C)cccc3Cl)s2)cc(N2CCN(CCO)CC2)n1 [Dasatinib] (partner 0.075 µM)
Method in brief: as §1

Masitinib + Lapatinib = compound: Cc1ccc(NC(=O)c2ccc(CN3CCN(C)CC3)cc2)cc1Nc1nc(-c2cccnc2)cs1 [Masitinib] + CS(=O)(=O)CCNCc1ccc(-c2ccc3ncnc(Nc4ccc(OCc5cccc(F)c5)c(Cl)c4)c3c2)o1 [Lapatinib] (partner 2 µM)
Method in brief: as §1

[2] = compound: CC1=CC(=CC=C1)NC2=NC(=CS2)C3=CC=NC=C3 + CS(=O)(=O)N1CCN(Cc2cc3nc(-c4cccc5[nH]ncc45)nc(N4CCOCC4)c3s2)CC1 [Pictilisib] (partner 1 µM)
Method in brief: as §1

| Cell Line | relative viability ([1]; first compound 0.08 µM) | relative viability ([1]; first compound 0.253 µM) | relative viability ([1]; first compound 0.8 µM) | relative viability ([1]; first compound 2.53 µM) | relative viability ([1]; first compound 8 µM) | relative viability (Masitinib + Dasatinib; first compound 0.01 µM) | relative viability (Masitinib + Dasatinib; first compound 0.1 µM) | relative viability (Masitinib + Dasatinib; first compound 0.3162 µM) | relative viability (Masitinib + Dasatinib; first compound 1 µM) | relative viability (Masitinib + Lapatinib; first compound 0.01 µM) | relative viability (Masitinib + Lapatinib; first compound 0.03162 µM) | relative viability (Masitinib + Lapatinib; first compound 0.1 µM) | relative viability (Masitinib + Lapatinib; first compound 0.3162 µM) | relative viability (Masitinib + Lapatinib; first compound 1 µM) | relative viability (Masitinib + Dasatinib; first compound 0.03162 µM) | relative viability ([2]; first compound 0.08 µM) | relative viability ([2]; first compound 0.253 µM) | relative viability ([2]; first compound 0.8 µM) | relative viability ([2]; first compound 2.53 µM) | relative viability ([2]; first compound 8 µM) |
| --- | --- | --- | --- | --- | --- | --- | --- | --- | --- | --- | --- | --- | --- | --- | --- | --- | --- | --- | --- | --- |
| NCI-H522 | 0.71 | 0.649 | 0.737 | 0.735 | 0.775 | 0.818 | 0.823 | 0.887 | 0.879 | – | – | – | – | – | – | – | – | – | – | – |
| HCC-15 | 0.533 | 0.607 | 0.661 | 0.595 | 0.561 | 0.516 | 0.68 | 0.512 | 0.59 | 0.561 | 0.919 | 0.677 | 0.917 | 0.852 | 0.617 | 0.644 | 0.665 | 0.684 | 0.692 | 0.701 |
| A-427 | 0.378 | 0.522 | 0.523 | 0.397 | 0.48 | – | – | 0.802 | 0.695 | – | 1.02 | – | 1.17 | 1.03 | 0.726 | 0.633 | 0.71 | 0.692 | – | 0.655 |
| NCI-H23 | 0.48 | 0.485 | 0.654 | 0.526 | 0.555 | 0.713 | 0.786 | 0.859 | 0.805 | 0.889 | 0.829 | 1.16 | 1.19 | 1.09 | 0.69 | 0.33 | 0.482 | 0.555 | 0.434 | 0.462 |
| NCI-H1755 | 0.485 | 0.7 | 0.58 | 0.653 | 0.588 | – | 0.451 | 0.422 | 0.383 | – | 0.998 | 0.711 | 1.07 | 0.995 | 0.455 | 0.339 | 0.401 | 0.338 | 0.344 | 0.367 |
| LU99A | 0.271 | 0.271 | 0.296 | 0.284 | 0.288 | 0.583 | 0.557 | 0.503 | 0.503 | 0.953 | 1.1 | 1.05 | 1.05 | 0.981 | 0.619 | – | 0.309 | 0.306 | 0.368 | 0.326 |
| PC-3 [JPC-3] | 0.651 | 0.659 | 0.599 | 0.607 | 0.594 | 0.984 | 0.973 | 0.927 | 0.954 | 0.474 | 0.416 | 0.462 | 0.367 | 0.422 | 0.839 | 0.575 | 0.609 | 0.617 | 0.629 | 0.719 |
| NCI-H1975 | 0.699 | 0.653 | 0.628 | 0.483 | 0.267 | 0.427 | 0.427 | – | 0.279 | 0.941 | 0.876 | 0.992 | 0.824 | 0.828 | 0.403 | 0.229 | 0.216 | 0.188 | 0.199 | 0.191 |
| NCI-H1703 | – | – | – | – | – | – | – | – | – | 0.764 | 0.857 | 0.436 | 0.479 | 0.256 | – | 0.229 | 0.243 | 0.238 | 0.282 | 0.262 |
